# Counter-ions that a name gives are not always drawn.
# Assays:
# muscarinic receptors = experiment: 3H-oxotremorine-M binding assay; settings: 3 nM 3H-oxotremorine-M, rat cerebral cortical membranes, 15 min 25° C.; read-out: Inhibition of 3H-Oxo
# Description: Each compound was tested to determine the affinity of the compound for the muscarinic receptors using the following procedure.
# For each in vitro binding, male Sprague-Dawley (Harlan Sprague-Dawley, Indianapolis, Ind.) rats weighing from about 100 to about 150 grams each were sacrificed by decapitation. The brains were quickly removed and the cerebral cortex were dissected from the brain. The cerebral cortex tissue was homogenized in 10 volumes of 0.32 M sucrose and […] about 10 minutes at about 1000 x g. The supernatant was centrifuged at about 12,000 x g for about 10 minutes and the resulting pellet was resuspended in 20 mM tris-Cl, pH 7.4. The resuspended pellet was centrifuged again for about 10 minutes at about 50,000 x g. The resulting homogenate was preincubated for about 10 minutes at about 25° C. and centrifuged again for about 10 minutes at about 50,000 x g. The pellet was resuspended at 1 gram of pellet per 3 ml of buffer and frozen at about -80° C. until used.
# The aforementioned homogenates mixture was incubated for about 15 minutes at about 25° C. and then the homogenates were filtered through glass filters (Whatman, GF/C) with vacuum. The filters were washed 3 times with about 2 ml of cold tris-Cl buffer, and placed in scintillation vials containing about 10 ml of scintillation fluid (Ready Protein+, Beckman, Fullerton, Calif.). Radioactivity trapped on the filters was determined by liquid scintillation spectrometry. Nonspecific binding was determined using 1 μM atropine. […] DeLean, A. et al. Am.
# Rats = experiment: Conditioned avoidance behavior in rats; assay type: in vivo, rat; settings: screening dose 3.0 mg/kg s.c. 30 min before session
# From the text: In a conditioned avoidance test, animals learn to respond during a conditioned stimulus in order to avoid mild shock presentation. A response during the conditioned stimulus is termed an avoidance respone, a response during shock is termed an escape response; a response failure is when the animal fails to respond during either the conditioned stimlus or the shock presentation and is indicative of motor impairment. […] Antipsychotic drugs decrease the percentage of avoidance responses without interfering with the ability of the animal to respond since the animals do emit escape responses. The percentage of response failures is considered a measure of motor impairment.
# Rats were required to press a response lever in an experimental chamber in order to avoid or escape foot-shock. Each experimental session consisted of 50 trials. During each trial, the chamber was illuminated and a tone presented for a maximum of 10 sec. A response during the tone immediately terminated the tone and the houselight, ending the trial. In the absence of a response during the tone alone, tone+foot-shock (2.0 mA) was presented for a maximum of 10 sec. A response during shock presentation immediately terminated the shock, the tone and the houselight, ending the trial.
# For drug screening, a dose of 3.0 mg/kg was administered s.c. 30 min before the start of the experimental session.
# [1] = test system: psychiatric patients suffering from schizophrenia; settings: cited from earlier work
Structure (SMILES),IC50 (muscarinic receptors) [nM],Conditioned Avoidance % Avoidance Responses (Rats) [%],other results
"N#CCSc1nsnc1C1CN2CCC1CC2.O=C(O)C(=O)O (centres unmarked) [Compound 103, 3-(3-Cyanomethylthio-1,2,5-thiadiazol-4-yl)-1-azabicyclo[2.2.2]octane oxalate]",2.7,51,–
"O=C(O)/C=C/C(=O)O.c1csc(CCCSc2nsnc2C2CN3CCC2CC3)c1 (centres unmarked) [Compound 104, 3-(3-(3-(2-Thienyl)propylthio)-1,2,5-thiadiazol-4-yl)-1-azabicyclo[2.2.2]octane fumarate]",2.6,24,–
"Cn1nnnc1SCCCCSc1nsnc1C1CN2CCC1CC2 (centres unmarked) [Compound 106, oxalate]",2.8,55,–
"Cc1nnc(SCCCCSc2nsnc2C2CN3CCC2CC3)s1 (centres unmarked) [Compound 107, oxalate]",1,52,–
"CSc1nsnc1C1CN2CCC1CC2.O=C(O)C(=O)O (centres unmarked) [Compound 131, 3-(3-Methylthio-1,2,5-thiadiazol-4-yl)-1-azabicyclo[2.2.2]octane oxalate]",2.8,53,–
"CC(C)CCCSc1nsnc1[C@H]1CN2CCC[C@H]1C2 [Compound 157, (+)-Exo-(5R,6R)-6-(3-isohexylthio-1,2,5-thiadiazol-4-yl)-1-azabicyclo[3.2.1]-octane (+) L-tartrate]",10,12,–
"CC(C)CCCSc1nsnc1[C@@H]1CN2CCC[C@@H]1C2 [Compound 158, (-)-Exo-6-(3-isohexylthio-1,2,5-thiadiazol-4-yl)-1-azabicyclo[3.2.1]octane oxalate]",10,47,–
CN1CCN(C2=Nc3cc(Cl)ccc3Nc3ccccc32)CC1 [clozapine],–,–,agranulocytosis ([1]; reported for clinical use): cause agranulocytosis in some patients
"Cc1cc2c(s1)Nc1ccc(F)cc1N=C2N1CCN(C)CC1 [flumezapine, 7-fluoro-2-methyl-10-(4-methyl-1-piperazinyl)-4H-thieno[2,3-b][1,5]-benzodiazepine]",–,–,"incidence of raised enzyme levels (CPK, SGOT, SGPT) in treated patients ([1]; 17 patients treated, clinical trial terminated): unacceptably high incidence of raised enzyme levels"
O=C(CCCN1CCC(O)(c2ccc(Cl)cc2)CC1)c1ccc(F)cc1 [haloperidol],–,–,extra pyramidal symptoms ([1]; reported for clinical use): high incidence of extra pyramidal symptoms

# — patent publication US5663182A, “Antipsychotic method” (priority 1996, dated 1997)
